# Assays:
# Cryptococcus neoformans [1] = assay: Antimicrobial activity against Cryptococcus neoformans var. grubii obtained from AIDS patient by broth microdilution method; assay type: functional
# Cryptococcus neoformans [2] = assay: Antimicrobial activity against Cryptococcus neoformans var. grubii clinical isolate by broth microdilution method; assay type: functional
# [3] = test system: Cryptococcus albidosimilis; assay: Antimicrobial activity against Cryptococcus albidosimilis by broth microdilution method; assay type: functional; settings: Naganishia albidosimilis
# [4] = test system: Cryptococcus gattii species complex; assay: Antimicrobial activity against Cryptococcus gattii by broth microdilution method; assay type: functional, Cryptococcus bacillisporus
# Naganishia albida = assay: Antimicrobial activity against Cryptococcus albidus by broth microdilution method; assay type: functional
# Cryptococcus neoformans [5] = assay: Antimicrobial activity against Cryptococcus neoformans var. grubii by broth microdilution method; assay type: functional
# Cryptococcus neoformans [6] = assay: Antimicrobial activity against Cryptococcus neoformans var. grubii obtained from non-AIDS patient by broth microdilution method; assay type: functional
SMILES,MIC50 (Cryptococcus neoformans [1]),MIC90 (Cryptococcus neoformans [1]),MIC50 (Cryptococcus neoformans [2]),MIC90 (Cryptococcus neoformans [2]),MIC50 [3],MIC90 [3],MIC50 [4],MIC90 [4],MIC50 (Naganishia albida),MIC90 (Naganishia albida),MIC50 (Cryptococcus neoformans [5]),MIC90 (Cryptococcus neoformans [5]),MIC50 (Cryptococcus neoformans [6]),MIC90 (Cryptococcus neoformans [6]),MIC [3],MIC [4],MIC (Naganishia albida),MIC (Cryptococcus neoformans [5])
C[C@@H]1[C@H](O)[C@@H](C)/C=C/C=C/C=C/C=C/C=C/C=C/C=C/[C@H](O[C@@H]2O[C@H](C)[C@@H](O)[C@H](N)[C@@H]2O)C[C@@H]2O[C@](O)(C[C@@H](O)C[C@@H](O)[C@H](O)CC[C@@H](O)C[C@@H](O)CC(=O)O[C@H]1C)C[C@H](O)[C@H]2C(=O)O [AMPHOTERICIN B],0.25 µg/mL,0.25 µg/mL,0.25 µg/mL,0.25 µg/mL,0.25 µg/mL,0.5 µg/mL,0.25 µg/mL,0.5 µg/mL,0.25 µg/mL,0.5 µg/mL,0.25 µg/mL,0.5 µg/mL,–,–,–,–,–,–
OC(Cn1cncn1)(Cn1cncn1)c1ccc(F)cc1F [FLUCONAZOLE],2 µg/mL,2 µg/mL,2 µg/mL,4 µg/mL,4 µg/mL,8 µg/mL,4 µg/mL,8 µg/mL,4 µg/mL,8 µg/mL,4 µg/mL,8 µg/mL,–,–,–,–,–,–
Nc1nc(=O)[nH]cc1F [FLUCYTOSINE],4 µg/mL,8 µg/mL,4 µg/mL,8 µg/mL,4 µg/mL,8 µg/mL,4 µg/mL,8 µg/mL,4 µg/mL,8 µg/mL,4 µg/mL,8 µg/mL,2 µg/mL,4 µg/mL,–,–,–,–
C[C@@H](c1nc(-c2ccc(C#N)cc2)cs1)[C@](O)(Cn1cncn1)c1cc(F)ccc1F [ISAVUCONAZOLE],0.008 µg/mL,0.016 µg/mL,0.004 µg/mL,0.016 µg/mL,0.004 µg/mL,0.016 µg/mL,0.004 µg/mL,0.016 µg/mL,0.004 µg/mL,0.016 µg/mL,0.004 µg/mL,0.016 µg/mL,0.008 µg/mL,0.031 µg/mL,–,–,–,–
CCC(C)n1ncn(-c2ccc(N3CCN(c4ccc(OCC5COC(Cn6cncn6)(c6ccc(Cl)cc6Cl)O5)cc4)CC3)cc2)c1=O (stereo not drawn) [ITRACONAZOLE],0.031 µg/mL,0.125 µg/mL,0.031 µg/mL,0.25 µg/mL,0.063 µg/mL,0.25 µg/mL,0.063 µg/mL,0.25 µg/mL,0.063 µg/mL,0.25 µg/mL,0.063 µg/mL,0.25 µg/mL,0.031 µg/mL,0.063 µg/mL,–,–,–,–
CC[C@@H]([C@H](C)O)n1ncn(-c2ccc(N3CCN(c4ccc(OC[C@@H]5CO[C@@](Cn6cncn6)(c6ccc(F)cc6F)C5)cc4)CC3)cc2)c1=O [POSACONAZOLE],0.031 µg/mL,0.125 µg/mL,0.004 µg/mL,0.016 µg/mL,0.31 µg/mL,0.63 µg/mL,0.31 µg/mL,0.63 µg/mL,0.31 µg/mL,0.63 µg/mL,0.31 µg/mL,0.63 µg/mL,0.063 µg/mL,0.125 µg/mL,0.016 µg/mL,0.016 µg/mL,0.016 µg/mL,0.016 µg/mL
C[C@@H](c1ncncc1F)[C@](O)(Cn1cncn1)c1ccc(F)cc1F [VORICONAZOLE],0.031 µg/mL,0.125 µg/mL,0.031 µg/mL,0.125 µg/mL,0.063 µg/mL,0.25 µg/mL,0.063 µg/mL,0.25 µg/mL,0.063 µg/mL,0.25 µg/mL,0.063 µg/mL,0.25 µg/mL,0.063 µg/mL,0.063 µg/mL,–,–,–,–
